Assay results taken from patent publication US20220193081A1 (Ellamed IP & Services PTE. LTD., priority 2019, published 2022).

Columns and labels:
[1] = Visual inspection on storage of sildenafil citrate in buffered 60% aqueous ethanol (Example 4); format: physicochemical; conditions: pH 5.5, NaOH
Procedure: Before being placed on storage, and at time points 7 and 42 days, the concentration of sildenafil in the mixtures were assayed using HPLC. The samples were then stored at either −20° C., 2-8° C. or 25° C. for periods of up to 42 days. Periodically, the samples were visually inspected for evidence of crystallization.

[2] = Extended stability in buffered 50% ethanol, HPLC assay of sildenafil and impurities (Example 6); format: physicochemical
Procedure: Before being placed on storage in glass vials, plastic containers or Easysnap® blisters, and at time points up to 160 days, the concentration of sildenafil and its impurities in the mixtures were assayed using HPLC. The samples were then stored at 25° C./60% RH, 30° C./65% RH or 40° C./75% RH for periods of up to 160 days. The results of the assays are shown in Table 10 (sildenafil), Table 11 (Impurity B) and Table 12 (Impurity D).

[3] = Easysnap ®, 25° C./60% RH, Day 32
[4] = Easysnap ®, 25° C./60% RH, Day 80
[5] = Easysnap ®, 25° C./60% RH, Day 159
[6] = Easysnap ®, 30° C./65% RH, Day 32
[7] = Easysnap ®, 40° C./75% RH, Day 32
[8] = plastic, 25° C./60% RH, Day 159

In the case of `CCCc1nn(C)c2c(=O)nc(-c3cc(S(=O)(=O)N4CCN(C)CC4)ccc3OCC)[nH]c12.O=C(O)CC(O)(CC(=O)O)C(=O)O` [sildenafil citrate, 1-[[3-(4,7-Dihydro-1-methyl-7-oxo-3-propyl-1H-pyrazolo[4,3-d]pyrimidin-5-yl)-4-ethoxyphenyl]sulfonyl]-4-methylpiperazine citrate salt], the “visual inspection for crystallization” value ([1]; 18 mg/ml, with sucralose, 2-8° C.) is reported as “Prec”, the “visual inspection for crystallization” value ([1]; 18 mg/ml, with sucralose, −20° C.) is reported as “Prec” and the “visual inspection for crystallization” value ([1]; 18 mg/ml, without sucralose, 2-8° C.) is reported as “Prec”. The “visual inspection for crystallization” value ([1]; 18 mg/ml, without sucralose, −20° C.) was “Prec”, the “visual inspection for crystallization” value ([1]; 21 mg/ml, without sucralose, 2-8° C.) was “Prec” and the “visual inspection for crystallization” value ([1]; 21 mg/ml, without sucralose, −20° C.) was “Prec”. For the same compound, the sildenafil assay ([2]; 20 mg/ml with sucralose 1 mg/ml, monoammonium glycyrrhizinate 1 mg/ml, eucalyptus-menthol 3 mg/ml, Day 0, before storage) was 102.02 % LS, the “Impurity B” value [2, 3] was 0.09 % RS and the “Impurity D” value [2, 3] was 0.030 % RS. For the same compound, the sildenafil assay [2, 3] was 100.87 % LS, the “Impurity B” value [2, 4] was 0.11 % RS and the “Impurity D” value [2, 4] was 0.030 % RS. For the same compound, the sildenafil assay [2, 4] was 101.53 % LS, the “Impurity B” value [2, 5] was 0.20 % RS and the “Impurity D” value [2, 5] was 0.034 % RS. The sildenafil assay [2, 5] was 100.91 % LS, the “Impurity B” value [2, 6] was 0.10 % RS and the “Impurity D” value [2, 6] was 0.030 % RS. The sildenafil assay [2, 6] was 100.85 % LS, the “Impurity B” value [2, 7] was 0.20 % RS and the “Impurity D” value [2, 7] was 0.030 % RS. The sildenafil assay [2, 7] was 101.46 % LS, the “Impurity B” value ([2]; glass, 25° C./60% RH, Day 32) was 0.07 % RS and the “Impurity D” value ([2]; glass, 25° C./60% RH, Day 32) was 0.030 % RS. The sildenafil assay ([2]; glass, 25° C./60% RH, Day 32) was 100.76 % LS, the “Impurity B” value ([2]; glass, 25° C./60% RH, Day 80) was 0.10 % RS and the “Impurity D” value ([2]; glass, 25° C./60% RH, Day 80) was 0.030 % RS. The sildenafil assay ([2]; glass, 25° C./60% RH, Day 80) was 101.47 % LS, the “Impurity B” value ([2]; glass, 25° C./60% RH, Day 159) was 0.17 % RS and the “Impurity D” value ([2]; glass, 25° C./60% RH, Day 159) was 0.038 % RS. The sildenafil assay ([2]; glass, 25° C./60% RH, Day 159) was 100.68 % LS, the “Impurity B” value ([2]; glass, 30° C./65% RH, Day 32) was 0.10 % RS and the “Impurity D” value ([2]; glass, 30° C./65% RH, Day 32) was 0.030 % RS. For the same compound, the sildenafil assay ([2]; glass, 30° C./65% RH, Day 32) was 100.46 % LS, the “Impurity B” value ([2]; glass, 40° C./75% RH, Day 32) was 0.17 % RS and the “Impurity D” value ([2]; glass, 40° C./75% RH, Day 32) was 0.030 % RS. The sildenafil assay ([2]; glass, 40° C./75% RH, Day 32) was 100.39 % LS, the “Impurity B” value ([2]; glass, 40° C./75% RH, Day 159) was 0.45 % RS and the “Impurity D” value ([2]; glass, 40° C./75% RH, Day 159) was 0.039 % RS. For the same compound, the sildenafil assay ([2]; glass, 40° C./75% RH, Day 159) was 100.60 % LS, the “Impurity B” value ([2]; plastic, 25° C./60% RH, Day 32) was 0.08 % RS and the “Impurity D” value ([2]; plastic, 25° C./60% RH, Day 32) was 0.040 % RS. For the same compound, the sildenafil assay ([2]; plastic, 25° C./60% RH, Day 32) was 100.42 % LS, the “Impurity B” value ([2]; plastic, 25° C./60% RH, Day 80) was 0.09 % RS and the “Impurity D” value ([2]; plastic, 25° C./60% RH, Day 80) was 0.030 % RS. For the same compound, the sildenafil assay ([2]; plastic, 25° C./60% RH, Day 80) was 101.59 % LS, the “Impurity B” value [2, 8] was 0.16 % RS and the “Impurity D” value [2, 8] was 0.033 % RS. The sildenafil assay [2, 8] was 101.19 % LS, the “Impurity B” value ([2]; plastic, 30° C./65% RH, Day 32) was 0.09 % RS and the “Impurity D” value ([2]; plastic, 30° C./65% RH, Day 32) was 0.030 % RS. For the same compound, the sildenafil assay ([2]; plastic, 30° C./65% RH, Day 32) was 100.79 % LS, the “Impurity B” value ([2]; plastic, 40° C./75% RH, Day 32) was 0.17 % RS and the “Impurity D” value ([2]; plastic, 40° C./75% RH, Day 32) was 0.030 % RS. For the same compound, the sildenafil assay ([2]; plastic, 40° C./75% RH, Day 32) was 100.76 % LS.
